What was measured:
[1] = Clearance in cancer patient at 20 mg for 60 mins treated 1/1 cycle/day; format: ADME, organism-based; design: dosed compound name LY2090314; settings: human, in vivo
Canis familiaris [2] = experiment: Total drug recovery in beagle dog at 5 mg/kg, iv administered for 30 mins during 0 to 24 hrs time interval by radio analysis; format: ADME, organism-based, Canis lupus familiaris; design: dose 5 mg/kg, dosed compound name [14C]LY2090314, route intravenous; settings: in vivo
[3] = Volume of distribution at steady state in beagle dog at 5 mg/kg, iv administered for 30 mins; format: ADME, organism-based, Canis lupus familiaris; design: dose 5 mg/kg, dosed compound name [14C]LY2090314, route intravenous; settings: in vivo, read-out: Vdss
Rattus norvegicus = experiment: Clearance in Sprague-Dawley rat assessed as total radioactivity at 5 mg/kg, iv administered for 30 mins; format: ADME, organism-based; design: dose 5 mg/kg, dosed compound name [14C]LY2090314, route intravenous; settings: in vivo, 0.5 h
[4] = Half life in cancer patient at 10 mg for 60 mins treated 2/1 cycle/day; format: ADME, organism-based; design: dosed compound name LY2090314; settings: human, in vivo
[5] = Drug recovery in bile duct-cannulated Sprague-Dawley rat assessed as radioactivity in feces during 0 to 24 hrs at 5 mg/kg, iv administered for 30 mins relative to dosed radioactivity; format: ADME, organism-based; design: dose 5 mg/kg, dosed compound name [14C]LY2090314, route intravenous; settings: in vivo
[6] = Drug metabolism in Bcrp knockout Sprague-Dawley rat urine at 5 mg/kg, iv administered for 30 mins; format: ADME, organism-based; design: dose 5 mg/kg, dosed compound name LY2090314, route intravenous; settings: in vivo, 0.5 h
[7] = AUC (0 to infinity) in cancer patient at 120 mg for 60 mins treated 1/1 cycle/day; format: ADME, organism-based; design: dose 120 mg, time infinity, dosed compound name LY2090314; settings: human, plasma
[8] = AUC (0 to infinity) in cancer patient at 120 mg for 60 mins treated 1/8 cycle/day; format: ADME, organism-based; design: dose 120 mg, time infinity, dosed compound name LY2090314; settings: human, plasma
[9] = Tmax in cancer patient at 120 mg for 60 mins treated 1/1 cycle/day; format: ADME, organism-based; design: dosed compound name LY2090314; settings: human, in vivo
[10] = AUC (0 to infinity) in beagle dog at 5 mg/kg, iv administered for 30 mins; format: ADME, organism-based, Canis lupus familiaris; design: time infinity, dose 5 mg/kg, dosed compound name [14C]LY2090314, route intravenous; settings: plasma
[11] = Cmax in cancer patient at 10 mg for 60 mins treated 1/1 cycle/day; format: ADME, organism-based; design: dose 10 mg, dosed compound name LY2090314; settings: human, in vivo
[12] = Drug recovery in bile duct-cannulated Sprague-Dawley rat assessed as radioactivity in bile during 0 to 12 hrs at 5 mg/kg, iv for 30 mins; format: ADME, organism-based; design: dose 5 mg/kg, dosed compound name [14C]LY2090314, route intravenous; settings: in vivo
[13] = Half life in cancer patient at 40 mg for 60 mins treated 1/1 cycle/day; format: ADME, organism-based; design: dosed compound name LY2090314; settings: human, in vivo
[14] = Cmax in cancer patient at 60 mg for 60 mins treated 1/1 cycle/day; format: ADME, organism-based; design: dose 60 mg, dosed compound name LY2090314; settings: human, in vivo
[15] = Volume of distribution at steady state in cancer patient at 40 mg for 60 mins treated 1/1 cycle/day; format: ADME, organism-based; design: dosed compound name LY2090314; settings: human, in vivo, read-out: Vdss
Plasma = experiment: Drug metabolism in Bcrp knockout Sprague-Dawley rat plasma at 5 mg/kg, iv administered for 30 mins; format: ADME, organism-based; design: dose 5 mg/kg, dosed compound name LY2090314, route intravenous; settings: in vivo, 0.5 h
[16] = AUC (0 to infinity) in cancer patient at 20 mg for 60 mins treated 1/1 cycle/day; format: ADME, organism-based; design: dose 20 mg, time infinity, dosed compound name LY2090314; settings: human, plasma
[17] = Clearance in cancer patient at 120 mg for 60 mins treated 1/1 cycle/day; format: ADME, organism-based; design: dosed compound name LY2090314; settings: human, in vivo
Blood = experiment: Drug uptake in Sprague-Dawley rat blood at 5 mg/kg, iv administered for 30 mins; format: ADME, organism-based; design: dose 5 mg/kg, dosed compound name [14C]LY2090314, route intravenous; settings: in vivo, 0.5 h
[18] = Half life in cancer patient at 120 mg for 60 mins treated 1/1 cycle/day; format: ADME, organism-based; design: dosed compound name LY2090314; settings: human, in vivo
Canis familiaris [19] = experiment: Total drug recovery in beagle dog at 5 mg/kg, iv administered for 30 mins during 0 to 168 hrs time interval by radio analysis; format: ADME, organism-based, Canis lupus familiaris; design: dose 5 mg/kg, dosed compound name [14C]LY2090314, route intravenous; settings: in vivo
[20] = Cmax in Sprague-Dawley rat at 5 mg/kg, iv administered for 30 mins; format: ADME, organism-based; design: dose 5 mg/kg, dosed compound name [14C]LY2090314, route intravenous; settings: in vivo
[21] = Clearance in Sprague-Dawley rat at 5 mg/kg, iv administered for 30 mins; format: ADME, organism-based; design: dose 5 mg/kg, dosed compound name [14C]LY2090314, route intravenous; settings: in vivo
[22] = AUC (0 to infinity) in cancer patient at 10 mg for 60 mins treated 2/1 cycle/day; format: ADME, organism-based; design: dose 10 mg, time infinity, dosed compound name LY2090314; settings: human, plasma
[23] = Volume of distribution at steady state in cancer patient at 60 mg for 60 mins treated 1/1 cycle/day; format: ADME, organism-based; design: dosed compound name LY2090314; settings: human, in vivo, read-out: Vdss
Canis familiaris [24] = experiment: Drug recovery in beagle dog cage at 5 mg/kg, iv administered for 30 mins during 0 to 24 hrs time interval by radio analysis; format: ADME, organism-based, Canis lupus familiaris; design: dose 5 mg/kg, dosed compound name [14C]LY2090314, route intravenous; settings: in vivo

O=C1NC(=O)C(c2cnc3ccccn23)=C1c1cn2c3c(cc(F)cc13)CN(C(=O)N1CCCCC1)CC2 [LY-2090314]
clearance [1]: 782 mL/min
Radiolabel recovery (Canis familiaris [2]): 61.5%
Vd [3]: 0.915 L/kg
CL (Rattus norvegicus): 40.5 mL/min/kg
half-life [4]: 2.44 h
Radiolabel recovery [5]: 6.75%
Drug metabolism [6]: metabolite_detected
AUC(0-inf) [7]: 3310 ng·h/mL
AUC(0-inf) [8]: 2190 ng·h/mL
Tmax [9]: 0.98 h
AUC(0-inf) [10]: 3230 ng·h/mL
Cmax [11]: 122 ng/mL
Radiolabel recovery [12]: 1.78%
half-life [13]: 3.15 h
Cmax [14]: 881 ng/mL
Vd [15]: 79.3 L
Drug metabolism (Plasma): metabolite_not_detected
AUC(0-inf) [16]: 427 ng·h/mL
clearance [17]: 605 mL/min
Compound recovery (Blood): 83.4%
half-life [18]: 2.97 h
Radiolabel recovery (Canis familiaris [19]): 93%
Cmax [20]: 1680 ng/mL
clearance [21]: 57.5 mL/min/kg
AUC(0-inf) [22]: 192 ng·h/mL
Vd [23]: 76.8 L
Radiolabel recovery (Canis familiaris [24]): 2.03%
